From US20250109135A1, “NOVEL ISOINDOLINONE DERIVATIVE COMPOUNDS AS CASPASE INHIBITORS” (INNOVO THERAPEUTICS INC., priority 2022, published 2025)
Read-outs that look alike come from different tables or passages of the source.

What was measured:
[1] = target: T1, recombinant human Caspase-1 (Homo sapiens, UniProt P29466); assay: Caspase-1 inhibitory activity, fluorescent substrate Ac-YVAD-AFC; format: biochemical
T1 construct: purchased Enzo life science
T1 sequence (P29466 120-297 limits assumed): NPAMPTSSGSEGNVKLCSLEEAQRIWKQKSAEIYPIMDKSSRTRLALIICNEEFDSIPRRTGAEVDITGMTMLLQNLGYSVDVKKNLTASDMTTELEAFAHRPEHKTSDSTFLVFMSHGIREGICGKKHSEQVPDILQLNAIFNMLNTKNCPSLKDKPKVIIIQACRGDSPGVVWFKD
T1 sequence (P29466 317-404 limits assumed): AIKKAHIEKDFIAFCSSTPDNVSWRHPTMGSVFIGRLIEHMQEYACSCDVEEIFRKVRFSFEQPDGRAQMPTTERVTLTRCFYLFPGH
Procedure: To determine the Caspase-1 inhibitory activity of the compounds of the present invention prepared in Example, Caspase-1 activity was measured using a substrate with a fluorescent dye attached to it. […] The compound was dissolved in DMSO and stored at −20° C. Enzymatic reactions were carried out in a buffer comprising 50 mM HEPES (pH 8.0), 50 mM KCl, 200 mM NaCl, 10 mM DTT, 0.1% CHAPS (w/v). Enzyme inactivation was measured in the presence of different concentrations of the compound using the fluorescent substrate N-Acetyl-Tyr-Val-Ala-Asp-7-amido-4-trifluoromethylcoumarin (Ac-YVAD-AFC) (Sigma) at a concentration of 50 μM and 1 unit of recombinant human Caspase-1 (Enzo life science). A CLARIOstar Plus spectrometer (BMG Labtech) was used to measure the reaction rate as a function of time in the 400/505 nm (Ex/Em) wavelength band. […] If kobs/[I] is 20 or more, it is denoted as A, if it is 10 or more but less than 20, it is denoted as B, if it is 1 or more but less than 10, it is denoted as C, and if it is less than 1, it is denoted as D.
In the above equation, At means the enzyme reaction rate at time t (min), and Amax means the maximum reaction rate.

[2] = test system: Secreted IL-1β in THP-1 cells; assay: Interleukin-1β inhibitory activity in human monocytic cells THP-1 (ELISA); format: cell-based; details: compound 100 nM, PMA-differentiated THP-1, LPS 10 μg/ml then 5 mM ATP, 24 h
Procedure: Caspase-1 is known as […] (ICE). Activated Caspase-1 is involved in the cleavage of pro-form IL-1β to produce the mature form, which is then secreted to induce inflammation. Therefore, the compounds identified in Experimental example 1 were tested to determine if their Caspase-1 inhibitory activity affected the production of […].
THP-1 (ATCC) cells were cultured in RPMI 1640 (Hyclone) growth medium comprising 10% Fetal bovine serum (FBS, Gibco) and antibiotics (100 U/ml Penicillin, 0.1 mg/ml Streptomycin, Cytiva) under 37° C., 5% CO2 conditions. Cultured THP-1 cells were seeded in growth medium to a concentration of 3×10^5 cells/well in 24-well plates (Celvest) and then treated with 1 μM Phorbol 12-myristate 13-acetate (PMA) (Sigma) for 24 hours to induce differentiation. Differentiated THP-1 were pre treated with 10 μg/ml Lipopolysaccharide (LPS, from E. coli 0111:B4 (InvivoGen)) in serum free RPMI 1640 medium for 24 hours to induce an inflammatory response. After removal of LPS, the compounds were pretreated for 1 h at a concentration of 100 nM using the same medium, followed by the addition of 5 mM ATP (InvivoGen) and incubation for 24 h in an incubator. The treated medium was collected and centrifuged, and IL-1β was quantified using an Enzyme linked immunoassay kit (ELISA kit, R&D system), and absorbance was measured at 450 nm using a CLARIOstar Plus spectrometer. Inhibitory activity was denoted as a if it was 50% or more, b if it was 30% or more but less than 50%, c if it was 10% or more but less than 30%, and d if it was less than 10%.

[3] = pH 8, 1 unit recombinant human Caspase-1, 50 μM Ac-YVAD-AFC, read-out: kobs/[I] Caspase-1
[4] = pH 8, read-out: kobs/[I] Caspase-1

Row | Structure (SMILES) | kinact/KI [1, 3] | inhibition at 0.1 µM [2] | kinact/KI [1, 4]
1 | CCC(C(=O)NC(CC(=O)O)C(=O)CF)N1Cc2ccc(C3=CCN(S(C)(=O)=O)CC3)cc2C1=O (stereo not drawn) [Compound 7, 5-fluoro-3-(2-(6-(1-(methylsulfonyl)-1,2,3,6-tetrahydropyridin-4-yl)-1-oxoisoindolin-2-yl)butanamido)-4-oxopentanoic acid] | 0.0167 to 0.167 M⁻¹ s⁻¹ | < 10% | 
2 | C[C@@H](C(=O)NC(CC(=O)O)C(=O)CF)N1Cc2ccc(-c3coc4ccccc34)cc2C1=O (stereo partly drawn) [Compound 49, 3-(2-(6-(benzofuran-3-yl)-1-oxoisoindolin-2-yl)propanamido)-5-fluoro-4-oxopentanoic acid] | 0.167 to 0.333 M⁻¹ s⁻¹ |  | 
3 | C[C@@H](C(=O)NC(CC(=O)O)C(=O)CF)N1Cc2ccc(-c3ccc4[nH]c(=O)[nH]c4c3)cc2C1=O (stereo partly drawn) [Compound 47, 5-fluoro-4-oxo-3-(2-(1-oxo-6-(2-oxo-2,3-dihydro-1H-benzo[d]imidazol-5-yl)isoindolin-2-yl)propanamido)pentanoic acid] |  |  | 0.0167 to 0.167 M⁻¹ s⁻¹
4 | CCC(C(=O)NC(CC(=O)O)C(=O)CF)N1Cc2ccc(-c3cccc4cnccc34)cc2C1=O (stereo not drawn) [Compound 36, 5-fluoro-3-(2-(6-(isoquinolin-5-yl)-1-oxoisoindolin-2-yl)butanamido)-4-oxopentanoic acid] |  | < 10% | 0.0167 to 0.167 M⁻¹ s⁻¹
5 | CC[C@@H](C(=O)NC(CC(=O)O)C(=O)CF)N1Cc2cc(N3CCN(c4nsc5ccccc45)CC3)ccc2C1=O (stereo partly drawn) [Compound 63, 3-((S)-2-(5-(4-(benzo[d]isothiazol-3-yl)piperazin-1-yl)-1-oxoisoindolin-2-yl)butanamido)-5-fluoro-4-oxopentanoic acid] |  |  | < 0.0167 M⁻¹ s⁻¹
6 | CCC(C(=O)NC(CC(=O)O)C(=O)CF)N1Cc2ccc(-c3ccnc4ccccc34)cc2C1=O (stereo not drawn) [Compound 31, 5-fluoro-4-oxo-3-(2-(1-oxo-6-(quinolin-4-yl)isoindolin-2-yl)butanamido)pentanoic acid] | 0.0167 to 0.167 M⁻¹ s⁻¹ | < 10% | 
7 | C[C@@H](C(=O)NC(CC(=O)O)C(=O)CF)N1Cc2ccc(-c3ccc4c(c3)OCCO4)cc2C1=O (stereo partly drawn) [Compound 48, 3-(2-(6-(2,3-dihydrobenzo[b][1,4]dioxin-6-yl)-1-oxoisoindolin-2-yl)propanamido)-5-fluoro-4-oxopentanoic acid] | < 0.0167 M⁻¹ s⁻¹ |  | 
8 | CC[C@@H](C(=O)N[C@@H](CC(=O)O)C(=O)COc1c(F)c(F)cc(F)c1F)N1Cc2ccc(N3CCCC3)cc2C1=O [Compound 53, (S)-4-oxo-3-((S)-2-(1-oxo-6-(pyrrolidin-1-yl)isoindolin-2-yl)butanamido)-5-(2,3,5,6-tetrafluorophenoxy)pentanoic acid] |  | < 10% | 0.0167 to 0.167 M⁻¹ s⁻¹
9 | CC[C@@H](C(=O)NC(CC(=O)O)C(=O)CF)N1Cc2cc(N3CCn4cc(C(F)(F)F)nc4C3)ccc2C1=O (stereo partly drawn) [Compound 62, 5-fluoro-4-oxo-3-((S)-2-(1-oxo-5-(2-(trifluoromethyl)-5,6-dihydroimidazo[1,2-a]pyrazin-7(8H)-yl)isoindolin-2-yl)butanamido)pentanoic acid] |  |  | < 0.0167 M⁻¹ s⁻¹
10 | CC[C@@H](C(=O)NC(CC(=O)O)C(=O)CF)N1Cc2cc(-c3ccc4occc4c3)ccc2C1=O (stereo partly drawn) [Compound 60, 3-((S)-2-(5-(benzofuran-5-yl)-1-oxoisoindolin-2-yl)butanamido)-5-fluoro-4-oxopentanoic acid] |  | < 10% | < 0.0167 M⁻¹ s⁻¹
11 | CC[C@@H](C(=O)NC(CC(=O)O)C(=O)CF)N1Cc2cc(N3CCCC3)ccc2C1=O (stereo partly drawn) [Compound 64, 5-fluoro-4-oxo-3-((S)-2-(1-oxo-5-(pyrrolidin-1-yl)isoindolin-2-yl)butanamido)pentanoic acid] |  |  | < 0.0167 M⁻¹ s⁻¹
12 | CC(C)[C@@H](C(=O)NC(CC(=O)O)C(=O)CF)N1Cc2ccc(N3CCCC3)cc2C1=O (stereo partly drawn) [Compound 43, 5-fluoro-3-((S)-3-methyl-2-(1-oxo-6-(pyrrolidin-1-yl)isoindolin-2-yl)butanamido)-4-oxopentanoic acid] |  | 10 to 30% | < 0.0167 M⁻¹ s⁻¹
13 | CC[C@@H](C(=O)NC(CC(=O)O)C(=O)CF)N1Cc2cc(-c3cccc4ccccc34)ccc2C1=O (stereo partly drawn) [Compound 61, 5-fluoro-3-((S)-2-(5-(naphthalen-1-yl)-1-oxoisoindolin-2-yl)butanamido)-4-oxopentanoic acid] |  | < 10% | < 0.0167 M⁻¹ s⁻¹
14 | C[C@@H](C(=O)NC(CC(=O)O)C(=O)CF)N1Cc2ccc(N3CCCC3)cc2C1=O (stereo partly drawn) [Compound 46, 5-fluoro-4-oxo-3-(2-(1-oxo-6-(pyrrolidin-1-yl)isoindolin-2-yl)propanamido)pentanoic acid] |  |  | < 0.0167 M⁻¹ s⁻¹
15 | CCC(C(=O)NC(CC(=O)O)C(=O)CF)N1Cc2ccc(N3CCN(c4nsc5ccccc45)CC3)cc2C1=O (stereo not drawn) [Compound 19, 3-(2-(6-(4-(benzo[d]isothiazol-3-yl)piperazin-1-yl)-1-oxoisoindolin-2-yl)butanamido)-5-fluoro-4-oxopentanoic acid] | < 0.0167 M⁻¹ s⁻¹ | < 10% | 

More lines, main results first:

Row | kinact/KI [1, 3] | Structure (SMILES) | inhibition at 0.1 µM [2] | kinact/KI [1, 4]
16 | 0.0167 to 0.167 M⁻¹ s⁻¹ | CCC(C(=O)NC(CC(=O)O)C(=O)CF)N1Cc2ccc(-c3ccsc3)cc2C1=O (stereo not drawn) [Compound 28, 5-fluoro-4-oxo-3-(2-(1-oxo-6-(thiophen-3-yl)isoindolin-2-yl)butanamido)pentanoic acid] | 10 to 30% | 
17 | 0.0167 to 0.167 M⁻¹ s⁻¹ | CCC(C(=O)NC(CC(=O)O)C(=O)CF)N1Cc2ccc(-c3ccnc(N)c3)cc2C1=O (stereo not drawn) [Compound 23, 3-(2-(6-(2-aminopyridin-4-yl)-1-oxoisoindolin-2-yl)butanamido)-5-fluoro-4-oxopentanoic acid] | < 10% | 
18 | 0.0167 to 0.167 M⁻¹ s⁻¹ | CCC(C(=O)NC(CC(=O)O)C(=O)CF)N1Cc2ccc(-c3cnn4ccccc34)cc2C1=O (stereo not drawn) [Compound 33, 5-fluoro-4-oxo-3-(2-(1-oxo-6-(pyrazolo[1,5-a]pyridin-3-yl)isoindolin-2-yl)butanamido)pentanoic acid] | < 10% | 
19 | 0.0167 to 0.167 M⁻¹ s⁻¹ | CCC(C(=O)NC(CC(=O)O)C(=O)CF)N1Cc2ccc(-c3ccc4scnc4c3)cc2C1=O (stereo not drawn) [Compound 32, 3-(2-(6-(benzo[d]thiazol-5-yl)-1-oxoisoindolin-2-yl)butanamido)-5-fluoro-4-oxopentanoic acid] | < 10% | 
20 | 0.0167 to 0.167 M⁻¹ s⁻¹ | CCC(C(=O)NC(CC(=O)O)C(=O)CF)N1Cc2ccc(-c3ccn(C)n3)cc2C1=O (stereo not drawn) [Compound 25, 5-fluoro-3-(2-(6-(1-methyl-1H-pyrazol-3-yl)-1-oxoisoindolin-2-yl)butanamido)-4-oxopentanoic acid] | 10 to 30% | 
21 | < 0.0167 M⁻¹ s⁻¹ | CCC(C(=O)NC(CC(=O)O)C(=O)CF)N1Cc2ccc(C3=CCOCC3)cc2C1=O (stereo not drawn) [Compound 15, 3-(2-(6-(3,6-dihydro-2H-pyran-4-yl)-1-oxoisoindolin-2-yl)butanamido)-5-fluoro-4-oxopentanoic acid] | < 10% | 
22 | 0.0167 to 0.167 M⁻¹ s⁻¹ | CCC(C(=O)NC(CC(=O)O)C(=O)CF)N1Cc2ccc(-c3ccc(C(=O)O)cc3)cc2C1=O (stereo not drawn) [Compound 17, 4-(2-(1-((1-carboxy-4-fluoro-3-oxobutan-2-yl)amino)-1-oxobutan-2-yl)-3-oxoisoindolin-5-yl)benzoic acid] | 10 to 30% | 
23 | 0.0167 to 0.167 M⁻¹ s⁻¹ | CCC(C(=O)NC(CC(=O)O)C(=O)CF)N1Cc2ccc(-c3cccc4ncccc34)cc2C1=O (stereo not drawn) [Compound 34, 5-fluoro-4-oxo-3-(2-(1-oxo-6-(quinolin-5-yl)isoindolin-2-yl)butanamido)pentanoic acid] | < 10% | 
